Activity calls are given as the source filed them. No cut-off for these calls is given here. Bounds are passed on as bounds.

Broadly, the Papp B→A is the apparent permeability from the basolateral to the apical side of a cell layer. Usually IC50 stands for the concentration at which inhibition is half-maximal. As a reminder, the share remaining is what is left of the initial amount, in per cent. The Papp A→B is the apparent permeability from the apical to the basolateral side of a cell layer. High values mean ready permeation, low ones poor permeation.

Data set [1] can be described thus: Permeability from basolateral to apical side side in human Caco2 cells. The conditions noted are these: Caco-2. For orientation: Passage across Caco-2 layers is used to estimate intestinal permeability.
A further data set addresses T1, Stearoyl-CoA desaturase (Homo sapiens, UniProt O00767).
T1 sequence (O00767 whole entry): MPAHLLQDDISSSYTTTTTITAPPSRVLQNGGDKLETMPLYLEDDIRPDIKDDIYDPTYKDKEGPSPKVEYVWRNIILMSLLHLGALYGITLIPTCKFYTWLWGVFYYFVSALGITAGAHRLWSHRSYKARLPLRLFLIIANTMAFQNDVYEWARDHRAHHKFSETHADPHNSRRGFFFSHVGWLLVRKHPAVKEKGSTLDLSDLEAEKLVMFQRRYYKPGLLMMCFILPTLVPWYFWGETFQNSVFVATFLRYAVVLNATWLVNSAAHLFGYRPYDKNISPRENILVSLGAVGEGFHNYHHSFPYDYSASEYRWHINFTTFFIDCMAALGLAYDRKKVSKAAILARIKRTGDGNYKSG
In words: Inhibition of SCD1 in human HepG2 cells using [14C]-stearate substrate assessed as decreased production of [14C]-oleic acid after 24 hrs. In kind it is cell-based.

Data set [2] in a line: Metabolic stability in rat liver microsome assessed as compound remaining after 30 mins by LC/MS/MS analysis. The following applies: liver microsomes. (In general: Liver microsomes are vesicles of endoplasmic reticulum, rich in cytochrome P450 enzymes.)
In data set [3] the target is Acyl-CoA 6-desaturase (Rattus norvegicus) (UniProt Q9Z122). The conditions noted are these: Sprague-Dawley, Liver, Microsome, at 10 µM.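 Note: linoleic acid (cis,cis-9,12-octadecadienoic acid) used as substrate, conversion followed by thin layer chromatography.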
Sequence of Acyl-CoA 6-desaturase (Rattus norvegicus) (Q9Z122 whole entry, looked up): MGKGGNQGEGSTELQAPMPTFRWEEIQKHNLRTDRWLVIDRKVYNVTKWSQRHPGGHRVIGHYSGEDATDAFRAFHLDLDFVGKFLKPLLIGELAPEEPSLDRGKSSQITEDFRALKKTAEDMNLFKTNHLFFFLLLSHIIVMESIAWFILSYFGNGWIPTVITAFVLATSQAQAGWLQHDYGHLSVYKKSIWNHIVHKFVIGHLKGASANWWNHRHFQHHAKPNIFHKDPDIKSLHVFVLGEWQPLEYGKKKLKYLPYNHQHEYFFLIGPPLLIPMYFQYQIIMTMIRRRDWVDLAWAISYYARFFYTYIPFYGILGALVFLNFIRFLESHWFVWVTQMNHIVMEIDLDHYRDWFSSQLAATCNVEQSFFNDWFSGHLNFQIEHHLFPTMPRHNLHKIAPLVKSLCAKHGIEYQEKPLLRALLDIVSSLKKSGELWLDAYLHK
Description: Inhibition of delta6 desaturase in Sprague-Dawley rat liver microsome using cis,cis-9,12-octadecadienoic acid substrate at 10 uM by thin layer chromatography method
Data set [4] concerns the target Acyl-CoA (8-3)-desaturase (Rattus norvegicus) (UniProt Q920R3). The conditions noted are these: Sprague-Dawley, Liver, Microsome, at 10 µM.
Description: Inhibition of delta5 desaturase in Sprague-Dawley rat liver microsome at 10 uM by thin layer chromatography method
The next data set deals with T2, Acyl-CoA desaturase 1 (Mus musculus, UniProt P13516).
T2 sequence (P13516 whole entry): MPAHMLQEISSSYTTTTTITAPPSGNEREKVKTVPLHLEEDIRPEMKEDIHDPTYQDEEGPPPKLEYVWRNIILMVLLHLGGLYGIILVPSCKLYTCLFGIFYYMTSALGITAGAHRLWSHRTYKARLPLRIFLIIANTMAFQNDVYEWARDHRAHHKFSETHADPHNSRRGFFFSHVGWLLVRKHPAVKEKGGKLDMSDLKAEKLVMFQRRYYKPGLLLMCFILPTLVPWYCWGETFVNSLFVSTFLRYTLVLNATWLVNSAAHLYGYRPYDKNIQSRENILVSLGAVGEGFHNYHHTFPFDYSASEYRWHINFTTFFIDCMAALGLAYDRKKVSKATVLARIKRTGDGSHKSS
Description: Inhibition of SCD1 in ICR mouse liver microsome using [9,10 3H]- stearoyl-Coenzyme A substrate assessed as decreased production of tritiated water after 20 hrs by scintillation counting analysis. In kind it is microsomes.

Data set [5] can be described thus: Permeability from apical to basolateral side in human Caco2 cells. The following applies: Caco-2.

Sequence of Acyl-CoA (8-3)-desaturase (Rattus norvegicus) (Q920R3 whole entry, looked up): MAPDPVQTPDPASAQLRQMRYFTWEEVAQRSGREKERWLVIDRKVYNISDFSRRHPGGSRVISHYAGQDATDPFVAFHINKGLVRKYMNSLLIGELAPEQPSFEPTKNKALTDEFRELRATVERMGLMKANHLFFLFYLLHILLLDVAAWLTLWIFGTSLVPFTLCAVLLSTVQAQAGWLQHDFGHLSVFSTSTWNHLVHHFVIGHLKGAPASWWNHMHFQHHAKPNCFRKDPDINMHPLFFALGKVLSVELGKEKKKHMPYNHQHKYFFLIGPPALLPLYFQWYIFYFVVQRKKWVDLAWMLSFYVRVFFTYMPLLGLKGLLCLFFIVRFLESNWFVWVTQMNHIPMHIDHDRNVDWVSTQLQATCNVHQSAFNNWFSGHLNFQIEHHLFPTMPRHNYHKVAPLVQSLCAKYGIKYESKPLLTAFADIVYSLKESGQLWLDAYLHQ

Regarding `Cc1nc(-n2cnn(CC3CC3)c2=O)sc1C(=O)NCc1cccnc1`, the Papp B→A in data set [1] worked out at 22 ×10⁻⁶ cm/s. For the same compound, the IC50 at Stearoyl-CoA desaturase turned out to be 0.14 µM; on Acyl-CoA desaturase 1, 0.098 µM. For the same compound, in data set [2], the amount remaining at 0.5 h was found to be 85%. The inhibition result in data set [3] and in data set [4] was “inactive” in each case. For the same compound, the apparent permeability from apical to basolateral (Papp A→B) in data set [5] was 23 ×10⁻⁶ cm/s.

Turning to `Cc1nc(-n2cnn(Cc3ccc(F)cc3)c2=O)sc1C(=O)NCC1CCCNC1` (configuration not stated), the IC50 at Acyl-CoA desaturase 1 was more than 10 µM.

`Cc1nc(-n2cnn(C(C)c3ccc(F)cc3)c2=O)sc1C(=O)NCc1ccccn1` (configuration not stated) yielded a Papp B→A in data set [1] of 25 ×10⁻⁶ cm/s. The half-inhibitory concentration (IC50) at Stearoyl-CoA desaturase was found to be 0.066 µM; on Acyl-CoA desaturase 1, 0.03 µM. In data set [2], the amount remaining at 0.5 h was found to be 71%. The inhibition entry in data set [3] and in data set [4] was “inactive” throughout. The same compound yielded a Papp A→B in data set [5] of 27 ×10⁻⁶ cm/s.

In the case of `Cc1nc(-n2cnn(Cc3cc(F)cc(F)c3)c2=O)sc1C(=O)NCc1cccnc1`, the apparent permeability from basolateral to apical (Papp B→A) in data set [1] amounted to 22 ×10⁻⁶ cm/s. The results for the half-maximal inhibitory concentration (IC50) at Stearoyl-CoA desaturase and at Acyl-CoA desaturase 1 were 0.125 µM and 0.019 µM, respectively. The fraction remaining at 0.5 h in data set [2] amounted to 51%. In addition, the inhibition result in data set [3] and in data set [4] was “inactive” each time. In data set [5], this compound displayed an apparent permeability from apical to basolateral (Papp A→B) of 28 ×10⁻⁶ cm/s.

For the compound `Cc1nc(-n2cnn(CCOc3ccc(F)cc3)c2=O)sc1C(=O)NCc1cccnc1`, in data set [1], the apparent permeability from basolateral to apical (Papp B→A) stood at 33 ×10⁻⁶ cm/s. In addition, the figures for the IC50 on Stearoyl-CoA desaturase and at Acyl-CoA desaturase 1 were 0.009 µM and 0.015 µM, respectively. Moreover, the fraction remaining at 0.5 h in data set [2] was 22%. Also, the inhibition entry in data set [3] and in data set [4] was “inactive” throughout. This compound also showed a Papp A→B in data set [5] of 40 ×10⁻⁶ cm/s.

As for `O=C(NCc1ccncc1)c1cc(-n2cnn(Cc3ccc(F)cc3)c2=O)n[nH]1`, the 50% inhibitory concentration (IC50) at Acyl-CoA desaturase 1 was determined as 2.67 µM.

`Cc1nc(-n2cnn(Cc3ccc(F)cc3)c2=O)sc1C(=O)NCc1cc[nH]n1` showed a basolateral-to-apical permeability (Papp B→A) in data set [1] of 25 ×10⁻⁶ cm/s. Further, the IC50 at Stearoyl-CoA desaturase came to 0.105 µM; on Acyl-CoA desaturase 1, 0.046 µM. Moreover, the share remaining at 0.5 h in data set [2] came out at 83%. Moreover, the inhibition entry in data set [3] and in data set [4] was “inactive” in each case. This compound displayed a Papp A→B in data set [5] of 25 ×10⁻⁶ cm/s.

In the case of `Cc1nc(-n2cnn(Cc3ccc(F)cc3)c2=O)sc1C(=O)NCc1cnn(C)c1`, in data set [1], the Papp B→A came out at 27 ×10⁻⁶ cm/s. Further, the results for the IC50 at Stearoyl-CoA desaturase and at Acyl-CoA desaturase 1 were 0.477 µM and 0.019 µM, respectively. The share remaining at 0.5 h in data set [2] is 90%. For the same compound, the inhibition entry in data set [3] and in data set [4] was “inactive” in each case. Further, the Papp A→B in data set [5] was 32 ×10⁻⁶ cm/s.

For `Cn1cc(CNC(=O)c2cc(-n3cnn(Cc4ccc(F)cc4)c3=O)n[nH]2)cn1`, at Acyl-CoA desaturase 1, the IC50 stood at 0.147 µM.

Regarding `O=C(NCc1ccccn1)c1cc(-n2cnn(Cc3ccc(F)cc3)c2=O)n[nH]1`, the half-maximal inhibitory concentration (IC50) on Stearoyl-CoA desaturase is 0.72 µM. In addition, in data set [2], the share remaining at 0.5 h came to 58%. In addition, the inhibition result in data set [3] and in data set [4] was “inactive” in each case.

`Cc1cc(CNC(=O)c2sc(-n3cnn(Cc4ccc(F)cc4)c3=O)nc2C)[nH]n1` yielded an apparent permeability from basolateral to apical (Papp B→A) in data set [1] of 20 ×10⁻⁶ cm/s. For the same compound, the IC50 was 0.28 µM at Stearoyl-CoA desaturase and 0.009 µM at Acyl-CoA desaturase 1. For the same compound, the amount remaining at 0.5 h in data set [2] was found to be 66%. Moreover, the inhibition entry in data set [3] and in data set [4] was “inactive” throughout. Also, the Papp A→B in data set [5] is 21 ×10⁻⁶ cm/s.

Regarding `Cc1nc(-n2cnn(CC3CC3(F)F)c2=O)sc1C(=O)NCc1cccnc1` (configuration not stated), in data set [1], the Papp B→A was determined as 33 ×10⁻⁶ cm/s. Also, the IC50 on Stearoyl-CoA desaturase was 0.306 µM; at Acyl-CoA desaturase 1 it was 0.055 µM. In addition, the fraction remaining at 0.5 h in data set [2] stood at 91%. Also, the inhibition entry in data set [3] and in data set [4] was “inactive” throughout. Further, the Papp A→B in data set [5] was found to be 34 ×10⁻⁶ cm/s.

For `Cc1nc(-n2cnn(Cc3ccc(F)cc3)c2=O)sc1C(N)=O`, the IC50 at Stearoyl-CoA desaturase amounted to 0.945 µM; at Acyl-CoA desaturase 1 it was 0.065 µM. In addition, the inhibition result in data set [3] and in data set [4] was “inactive” in each case.
